One assay has as its system platelet-rich plasma. Briefly: Aggregation of platelet-rich plasma. It counts as cell-based. The settings on record: Adenosin-diphosphate (5 μM)-induced; competitors each 1000 nM (FIG. 5). On the procedure: Platelet-rich plasma from fresh whole blood in sodium citrate was prepared by centrifugation of anticoagulated whole blood at 150 g for 20 min. After incubation of 0.45 ml of platelet rich plasma with different kininogen forms as indicated in the figure legends, and addition of 5 μl of […] at a final concentration of 5 μM, platelet aggregation was induced. Aggregation was quantitated by following the change in light transmission in a standardized aggregometer.
FIG. 5 Adenosin-diphosphate (5 μM)-induced aggregation of platelet-rich plasma was performed in the absence (−) or presence of GST-domain 5 (D5), or the peptides HK483 and HK486 (each 1000 nM). Platelet aggregation is presented as % of control.

Assay [1] deals with T1, platelet αIIbβ3-integrin with vitronectin (Homo sapiens, UniProt P04004).
T1 sequence (P04004 20-478): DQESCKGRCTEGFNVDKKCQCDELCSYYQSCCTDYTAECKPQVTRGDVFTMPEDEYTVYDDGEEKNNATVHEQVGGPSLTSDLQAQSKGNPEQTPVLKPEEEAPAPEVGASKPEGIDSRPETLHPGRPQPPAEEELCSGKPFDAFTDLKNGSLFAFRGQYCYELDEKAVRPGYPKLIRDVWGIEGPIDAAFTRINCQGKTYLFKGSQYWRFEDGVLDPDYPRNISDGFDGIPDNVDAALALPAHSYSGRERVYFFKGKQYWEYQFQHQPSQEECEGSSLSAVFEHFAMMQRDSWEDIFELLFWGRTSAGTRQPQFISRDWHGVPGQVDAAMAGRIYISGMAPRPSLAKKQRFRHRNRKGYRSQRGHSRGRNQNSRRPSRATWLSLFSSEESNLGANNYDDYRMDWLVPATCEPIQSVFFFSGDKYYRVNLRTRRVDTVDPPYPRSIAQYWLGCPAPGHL
The assay is described as follows: Binding of vitronectin to αIIbβ3-integrin. As to conditions: vitronectin 2 μg/ml, immobilized αIIbβ3-integrin 5 μg/ml, 10 μM ZnCl2 (FIG. 3). On the procedure:
Microtiter plates were coated with 5 μg/ml αIIbβ3-integrin in Tris-buffered saline, pH 7.4, containing 1 mM CaCl2, 1 mM MgCl2 overnight at 4° C. and then blocked with 3% (w/v) bovine serum albumin. Binding of multimeric vitronectin (2 μg/ml) was performed in a final volume of 50 μl Tris-buffered saline containing 0.1% Tween-20, 0.3% (w/v) bovine serum albumin, 1 mM CaCl2 and 1 mM MgCl2 for 2 h at 22° C. in the absence or presence of 10 μM ZnCl2 and different kininogen forms. After the incubation period, monoclonal anti-vitronectin antibody VN7 at a concentration of 125 ng/ml was added, followed by addition of 1:1000 diluted peroxidase-conjugated goat anti-mouse immunoglobulins, respectively. Binding was quantitated as described above.
FIG. 3 The binding of vitronectin (2 μg/ml) to immobilized αIIbβ3-integrin (5 μg/ml) in the absence or presence of increasing concentrations of PAI-1 (filled squares), HKa (filled circles) or GST-domain 5 (open circles) in a buffer containing 10 μM ZnCl2 was carried out. Specific binding is presented as absorbance at 405 nm.

Assay [2] deals with T2, binding of PAI-1 to vitronectin in PAI-1-depleted extracellular matrix of endothelial cells (Homo sapiens, UniProt P04004).
T2 construct: The extracellular matrix of human umbilical vein endothelial cells was prepared according to standard procedures; endogenous in cells; host or cells: extracellular matrix of human umbilical vein endothelial cells, glycine-treated
T2 sequence (P04004 20-478): T1 sequence (P04004 20-478)
Briefly: Binding of PAI-1 to endothelial cell matrix. As to conditions: 2 μg/ml PAI-1; competitors each 500 nM; 10 μM ZnCl2 (FIG. 1). As to the method: The extracellular matrix of human umbilical vein endothelial cells was prepared according to standard procedures. PAI-1-depleted extracellular matrix was obtained by subsequent incubation with glycine (0.1 M, pH 2.3) for 2 h at 25° C. Wells were washed and blocked with phosphate buffered saline containing 3% (wt/vol) bovine serum albumin before proceeding with binding assays. Binding of PAI-1 (2 μg/ml) to the extracellular matrix was performed in a final volume of 50 μl Tris-buffered saline containing 0.1% Tween-20, 0.3% (wt/vol) bovine serum albumin for 2 h at 22° C. in the absence or presence of […] and different kininogen forms. Following the incubation period and a washing step, bound PAI-1 was quantitated by anti-human PAI-1 monoclonal antibody 12A4, followed by addition of 1:1000 diluted peroxidase-conjugated goat anti-mouse immunoglobulins. The conversion of the substrate 2,2,-azino-di(3-ethyl) benz-thiazoline sulphate was monitored at 405 nm in a Thermomax microtiter plate reader. […]
FIG. 1 The binding of 2 μg/ml PAI-1 to PAI-1-depleted (2 h glycine preincubation) extracellular matrix of cultured endothelial cells was tested in the absence (−)or presence of HK, HKa, GST-domain 5 (D5), the peptides HK483 and HK486 (each 500 nM) in a buffer containing 10 μM ZnCl2. Specific binding of PAI-1 is presented as absorbance at 405 nm.

The test system of the next assay is PAI-1. Briefly: Urokinase-mediated clot lysis in the presence of PAI-1. The assay is classed as biochemical. The settings on record: not shown.
The test system of the next assay is platelets. The assay is described as follows: Platelet adhesion onto vitronectin-coated plates. It counts as cell-based. The settings on record: competitors each 250 nM (FIG. 4). As to the method:
Multiwell plates were coated with 5 μg/ml multimeric vitronectin (dissolved in bicarbonate buffer, pH 9.6) and blocked with 3% (wt/vol) bovine serum albumin for 16 h at 4° C. Platelets stained with calcein acetoxymethyl ester (calcein-AM, 2.5 μM) (15 min at 37° C. in the dark) at a density of 5×10^6 cells suspended in 50 μl HEPES-Tyrode buffer containing 4 mM MgCl2 were added together with the respective competitors and incubated for 30 min at 37° C. After three washes with phosphate buffered saline, bound platelets were lysed with 100 μl of lysis buffer (150 mM NaCl, 10 mM Tris-CH1, pH 7.5, 5 mM EDTA, 1% (wt/vol) NP-40, 1 mM phenyl-methylsulfonyl fluoride, 20 μg/ml soybean trypsin inhibitor) and quantified in a fluorescent plate reader (excitation filter 492 nm, emission filter 535 nm).
FIG. 4. The adhesion of platelets to vitronectin in the absence (−) or presence of HK, HKa, GST-domain 5(D5), or the peptides HK483 and HK486 (each 250 nM) was carried out. Cell adhesion is presented as % of control.

As to “Gly-486-Lys-502 (GKHKNKGKKNGKHNGWK; UniProt P01042 504-520, looked up, fragment) [HK486, peptide derived from the carboxy-terminus of the domain 5 of HK]”, the “aggregation of platelet-rich plasma” value in the assay with platelet-rich plasma is “inhibit”. The “interaction of platelet αIIbβ3-integrin with vitronectin” value in assay [1] is reported as “block”. For the same substance, the “binding of PAI-1 to vitronectin in PAI-1-depleted (glycine-treated) extracellular matrix of endothelial cells” value in assay [2] is reported as “inhibited”. In the assay with PAI-1, the “urokinase-mediated clot lysis, which is inhibited in the presence of PAI-1” value was “enhance”. Besides, the “αIIbβ3-integrin-mediated platelet adhesion to vitronectin” value with platelets is listed as “block”.

The values above are taken from US20050058636A1, “Medicament against thrombotic diseases” (priority 2002, published 2005).
